According to patent US9828360B2 (Array BioPharma Inc., priority 2012, dated 2017):

Assays:
Assay in all cases: KinaseProfiler off-target kinase profiling
Format in all cases: biochemical
Conditions in all cases: 10 μM, ATP near Km
PKD2 = target: T1, PKD2 (Homo sapiens, UniProt Q9BZL6)
T1 construct: purchased Millipore, Inc. (KinaseProfiler service)
Experimental: (§1) A representative compound of the invention (Example 48) was tested for off-target kinase activity at a concentration of 10 μM by Millipore, Inc. in their KinaseProfiler™ service against all the kinases available in their full kinase panel. The compound was run in duplicate at a concentration of ATP near the Km for each individual kinase according to Millipore's specifications. The results are shown in Table B. Data are reported as percent of control (POC) and are the average of the two replicates.

IR = target: T2, IR (Homo sapiens, UniProt P06213)
T2 construct: purchased Millipore, Inc. (KinaseProfiler service)
Experimental: as §1

Flt1 = target: T3, Flt1 (Homo sapiens, UniProt P17948)
T3 construct: purchased Millipore, Inc. (KinaseProfiler service)
Experimental: as §1

PrKX = target: T4, PrKX (Homo sapiens, UniProt P51817)
T4 construct: purchased Millipore, Inc. (KinaseProfiler service)
Experimental: as §1

PKCepsilon = target: T5, PKCepsilon (Homo sapiens, UniProt Q02156)
T5 construct: purchased Millipore, Inc. (KinaseProfiler service)
Experimental: as §1

Flt3 = target: T6, Flt3 (Homo sapiens, UniProt P36888)
T6 construct: purchased Millipore, Inc. (KinaseProfiler service)
Experimental: as §1

DMPK = target: T7, DMPK (Homo sapiens, UniProt Q09013)
T7 construct: purchased Millipore, Inc. (KinaseProfiler service)
Experimental: as §1

TrkB = target: T8, TrkB (Homo sapiens, UniProt Q16620)
T8 construct: purchased Millipore, Inc. (KinaseProfiler service)
Experimental: as §1

BrSK2 = target: T9, BrSK2 (Homo sapiens, UniProt Q8IWQ3)
T9 construct: purchased Millipore, Inc. (KinaseProfiler service)
Experimental: as §1

PDGFRbeta = target: T10, PDGFRbeta (Homo sapiens, UniProt P09619)
T10 construct: purchased Millipore, Inc. (KinaseProfiler service)
Experimental: as §1

PKCtheta = target: T11, PKCtheta (Homo sapiens, UniProt Q04759)
T11 construct: purchased Millipore, Inc. (KinaseProfiler service)
Experimental: as §1

IRAK4 = target: T12, IRAK4 (Homo sapiens, UniProt Q9NWZ3)
T12 construct: purchased Millipore, Inc. (KinaseProfiler service)
Experimental: as §1

DAPK3 = target: T13, DAPK3 (Homo sapiens, UniProt O43293)
T13 construct: purchased Millipore, Inc. (KinaseProfiler service)
Experimental: as §1

p38alpha = target: T14, p38alpha (Homo sapiens, UniProt Q16539)
T14 construct: purchased Millipore, Inc. (KinaseProfiler service)
Experimental: as §1

LOK = target: T15, LOK (Homo sapiens, UniProt O94804)
T15 construct: purchased Millipore, Inc. (KinaseProfiler service)
Experimental: as §1

MELK = target: T16, MELK (Homo sapiens, UniProt Q14680)
T16 construct: purchased Millipore, Inc. (KinaseProfiler service)
Experimental: as §1

IRR = target: T17, IRR (Homo sapiens, UniProt P14616)
T17 construct: purchased Millipore, Inc. (KinaseProfiler service)
Experimental: as §1

CAMK2g = target: T18, CAMK2g (Homo sapiens, UniProt Q13555)
T18 construct: purchased Millipore, Inc. (KinaseProfiler service)
Experimental: as §1

IGF-1R = target: T19, IGF-1R (Homo sapiens, UniProt P08069)
T19 construct: purchased Millipore, Inc. (KinaseProfiler service)
Experimental: as §1

ARK5 = target: T20, ARK5 (Homo sapiens, UniProt O60285)
T20 construct: purchased Millipore, Inc. (KinaseProfiler service)
Experimental: as §1

Ret = target: T21, Ret (Homo sapiens, UniProt P07949)
T21 construct: purchased Millipore, Inc. (KinaseProfiler service)
Experimental: as §1

EphB4 = target: T22, EphB4 (Homo sapiens, UniProt P54760)
T22 construct: purchased Millipore, Inc. (KinaseProfiler service)
Experimental: as §1

JAK2 = target: T23, JAK2 (Homo sapiens, UniProt O60674)
T23 construct: purchased Millipore, Inc. (KinaseProfiler service)
Experimental: as §1

IKKbeta = target: T24, IKKbeta (Homo sapiens, UniProt O14920)
T24 construct: purchased Millipore, Inc. (KinaseProfiler service)
Experimental: as §1

CDK7/cyclinH/MAT1 = target: T25, CDK7/cyclinH/MAT1 (Homo sapiens, UniProt P50613)
T25 construct: purchased Millipore, Inc. (KinaseProfiler service)
Experimental: as §1

Met = target: T26, Met (Homo sapiens, UniProt P08581)
T26 construct: purchased Millipore, Inc. (KinaseProfiler service)
Experimental: as §1

HIPK3 = target: T27, HIPK3 (Homo sapiens, UniProt Q9H422)
T27 construct: purchased Millipore, Inc. (KinaseProfiler service)
Experimental: as §1

SGK1 = target: T28, SGK1 (Homo sapiens, UniProt O00141, S422D)
T28 construct: purchased Millipore, Inc. (KinaseProfiler service)
Experimental: as §1

PDK1 = target: T29, PDK1 (Homo sapiens, UniProt O15530)
T29 construct: purchased Millipore, Inc. (KinaseProfiler service)
Experimental: as §1

BLK_m = target: T30, BLK_m (Mus musculus, UniProt P16277)
T30 construct: purchased Millipore, Inc. (KinaseProfiler service)
Experimental: as §1

Plk2 = target: T31, Plk2 (Homo sapiens, UniProt Q9NYY3)
T31 construct: purchased Millipore, Inc. (KinaseProfiler service)
Experimental: as §1

PAK2 = target: T32, PAK2 (Homo sapiens, UniProt Q13177)
T32 construct: purchased Millipore, Inc. (KinaseProfiler service)
Experimental: as §1

SGK2 = target: T33, SGK2 (Homo sapiens, UniProt Q9HBY8)
T33 construct: purchased Millipore, Inc. (KinaseProfiler service)
Experimental: as §1

PKD1 = target: T34, PKD1 (Homo sapiens, UniProt Q15139)
T34 construct: purchased Millipore, Inc. (KinaseProfiler service)
Experimental: as §1

p70S6K = target: T35, p70S6K (Homo sapiens, UniProt P23443)
T35 construct: purchased Millipore, Inc. (KinaseProfiler service)
Experimental: as §1

PhKgamma2 = target: T36, PhKgamma2 (Homo sapiens, UniProt P15735)
T36 construct: purchased Millipore, Inc. (KinaseProfiler service)
Experimental: as §1

Yes = target: T37, Yes (Homo sapiens, UniProt P07947)
T37 construct: purchased Millipore, Inc. (KinaseProfiler service)
Experimental: as §1

MST3 = target: T38, MST3 (Homo sapiens, UniProt Q9Y6E0)
T38 construct: purchased Millipore, Inc. (KinaseProfiler service)
Experimental: as §1

MKK4_m = target: T39, MKK4_m (Mus musculus, UniProt P47809)
T39 construct: purchased Millipore, Inc. (KinaseProfiler service)
Experimental: as §1

PKCbetaI = target: T40, PKCbetaI (Homo sapiens, UniProt P05771)
T40 construct: purchased Millipore, Inc. (KinaseProfiler service)
Experimental: as §1

SGK3 = target: T41, SGK3 (Homo sapiens, UniProt Q96BR1)
T41 construct: purchased Millipore, Inc. (KinaseProfiler service)
Experimental: as §1

T11 sequence (Q04759 whole entry): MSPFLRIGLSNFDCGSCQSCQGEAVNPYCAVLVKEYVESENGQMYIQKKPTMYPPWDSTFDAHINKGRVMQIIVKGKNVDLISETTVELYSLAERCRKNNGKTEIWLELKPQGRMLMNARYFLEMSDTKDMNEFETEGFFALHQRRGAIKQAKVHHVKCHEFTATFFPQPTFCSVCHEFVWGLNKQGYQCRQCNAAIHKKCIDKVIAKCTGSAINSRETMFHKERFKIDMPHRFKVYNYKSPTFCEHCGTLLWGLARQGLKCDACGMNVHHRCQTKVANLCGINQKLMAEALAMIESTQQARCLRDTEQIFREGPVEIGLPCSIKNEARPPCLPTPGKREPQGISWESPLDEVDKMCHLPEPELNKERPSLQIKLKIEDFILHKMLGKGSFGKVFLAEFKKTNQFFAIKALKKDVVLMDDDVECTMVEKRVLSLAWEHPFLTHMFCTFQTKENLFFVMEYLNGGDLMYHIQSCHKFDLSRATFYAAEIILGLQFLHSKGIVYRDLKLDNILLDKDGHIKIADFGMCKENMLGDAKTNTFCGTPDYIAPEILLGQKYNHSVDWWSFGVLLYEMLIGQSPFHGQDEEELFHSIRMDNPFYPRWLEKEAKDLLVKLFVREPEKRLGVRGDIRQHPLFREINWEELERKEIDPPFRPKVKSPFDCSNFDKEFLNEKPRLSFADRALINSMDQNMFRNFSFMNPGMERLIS
T3 sequence (P17948 27-1338): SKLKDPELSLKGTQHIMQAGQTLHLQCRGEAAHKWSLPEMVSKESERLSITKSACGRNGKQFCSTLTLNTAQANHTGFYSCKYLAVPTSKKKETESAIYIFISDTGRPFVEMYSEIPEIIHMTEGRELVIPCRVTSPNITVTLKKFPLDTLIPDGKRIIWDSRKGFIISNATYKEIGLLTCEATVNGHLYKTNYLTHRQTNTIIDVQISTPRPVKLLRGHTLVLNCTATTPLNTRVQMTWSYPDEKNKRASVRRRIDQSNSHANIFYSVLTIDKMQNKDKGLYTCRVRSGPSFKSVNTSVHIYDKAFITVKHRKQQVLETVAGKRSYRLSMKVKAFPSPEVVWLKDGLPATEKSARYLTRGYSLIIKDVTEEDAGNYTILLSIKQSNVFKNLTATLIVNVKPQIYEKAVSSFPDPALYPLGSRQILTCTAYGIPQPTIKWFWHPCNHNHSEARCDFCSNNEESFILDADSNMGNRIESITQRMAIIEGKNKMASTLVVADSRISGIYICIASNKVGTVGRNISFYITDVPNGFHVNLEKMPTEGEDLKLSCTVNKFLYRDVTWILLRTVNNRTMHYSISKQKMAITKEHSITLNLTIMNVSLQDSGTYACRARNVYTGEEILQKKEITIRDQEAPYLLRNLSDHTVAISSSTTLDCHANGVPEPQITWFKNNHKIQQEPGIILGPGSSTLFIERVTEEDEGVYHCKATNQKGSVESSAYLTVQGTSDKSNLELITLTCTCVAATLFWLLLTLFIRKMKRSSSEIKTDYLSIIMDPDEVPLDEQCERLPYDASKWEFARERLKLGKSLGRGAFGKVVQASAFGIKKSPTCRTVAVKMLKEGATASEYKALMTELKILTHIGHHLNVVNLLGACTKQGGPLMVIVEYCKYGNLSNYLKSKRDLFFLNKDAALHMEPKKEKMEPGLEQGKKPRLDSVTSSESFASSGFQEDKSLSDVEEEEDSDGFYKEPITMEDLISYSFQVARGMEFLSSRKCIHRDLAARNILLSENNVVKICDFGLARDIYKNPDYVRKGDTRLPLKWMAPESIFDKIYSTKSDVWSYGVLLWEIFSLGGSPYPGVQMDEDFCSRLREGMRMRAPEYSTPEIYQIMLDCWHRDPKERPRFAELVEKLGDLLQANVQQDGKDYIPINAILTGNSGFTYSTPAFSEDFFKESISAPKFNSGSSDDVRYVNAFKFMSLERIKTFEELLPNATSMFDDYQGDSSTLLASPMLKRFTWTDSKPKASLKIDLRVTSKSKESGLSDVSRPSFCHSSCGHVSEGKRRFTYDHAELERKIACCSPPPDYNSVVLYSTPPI
T25 sequence (P50613 whole entry): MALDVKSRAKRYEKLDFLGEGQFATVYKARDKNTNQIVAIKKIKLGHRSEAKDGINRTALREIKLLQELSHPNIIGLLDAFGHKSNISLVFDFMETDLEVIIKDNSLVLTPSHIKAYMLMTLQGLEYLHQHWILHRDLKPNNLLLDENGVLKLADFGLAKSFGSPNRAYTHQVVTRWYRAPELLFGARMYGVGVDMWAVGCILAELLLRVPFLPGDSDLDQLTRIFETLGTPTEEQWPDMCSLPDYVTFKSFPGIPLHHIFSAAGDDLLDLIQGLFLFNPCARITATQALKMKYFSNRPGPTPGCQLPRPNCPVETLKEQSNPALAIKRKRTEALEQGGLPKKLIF
T25 sequence (P51946 whole entry partner): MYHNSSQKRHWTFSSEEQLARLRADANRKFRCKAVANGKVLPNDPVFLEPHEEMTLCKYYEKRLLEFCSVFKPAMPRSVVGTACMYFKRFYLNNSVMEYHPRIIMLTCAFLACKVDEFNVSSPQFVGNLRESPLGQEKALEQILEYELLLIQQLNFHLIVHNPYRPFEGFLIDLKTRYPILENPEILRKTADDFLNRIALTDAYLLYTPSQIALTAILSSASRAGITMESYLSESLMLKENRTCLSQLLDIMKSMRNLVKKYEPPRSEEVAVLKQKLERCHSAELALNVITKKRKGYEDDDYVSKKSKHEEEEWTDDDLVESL
T25 sequence (P51948 whole entry partner): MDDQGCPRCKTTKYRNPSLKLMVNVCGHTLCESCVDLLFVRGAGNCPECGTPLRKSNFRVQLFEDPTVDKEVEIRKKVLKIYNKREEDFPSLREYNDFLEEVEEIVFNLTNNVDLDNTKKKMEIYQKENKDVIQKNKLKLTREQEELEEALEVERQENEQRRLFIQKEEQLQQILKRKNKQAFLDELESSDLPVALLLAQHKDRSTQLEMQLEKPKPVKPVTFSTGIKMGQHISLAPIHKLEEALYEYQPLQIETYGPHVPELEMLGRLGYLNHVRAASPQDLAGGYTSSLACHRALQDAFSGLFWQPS
T18 sequence (Q13555 whole entry): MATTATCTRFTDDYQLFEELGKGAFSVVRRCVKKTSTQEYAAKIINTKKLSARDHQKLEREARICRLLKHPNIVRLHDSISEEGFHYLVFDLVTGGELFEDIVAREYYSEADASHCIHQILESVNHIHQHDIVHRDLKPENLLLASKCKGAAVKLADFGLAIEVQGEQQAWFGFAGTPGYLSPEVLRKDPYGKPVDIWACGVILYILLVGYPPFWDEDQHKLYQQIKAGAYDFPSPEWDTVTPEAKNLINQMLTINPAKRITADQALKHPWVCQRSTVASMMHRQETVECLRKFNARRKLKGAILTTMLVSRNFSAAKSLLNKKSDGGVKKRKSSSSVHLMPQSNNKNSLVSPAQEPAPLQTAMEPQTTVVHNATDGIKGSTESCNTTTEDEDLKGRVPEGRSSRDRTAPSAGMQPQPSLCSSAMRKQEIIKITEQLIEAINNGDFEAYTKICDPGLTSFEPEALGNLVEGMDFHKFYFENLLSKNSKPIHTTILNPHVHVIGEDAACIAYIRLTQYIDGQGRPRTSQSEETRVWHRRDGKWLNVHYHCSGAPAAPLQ
T4 sequence (P51817 whole entry): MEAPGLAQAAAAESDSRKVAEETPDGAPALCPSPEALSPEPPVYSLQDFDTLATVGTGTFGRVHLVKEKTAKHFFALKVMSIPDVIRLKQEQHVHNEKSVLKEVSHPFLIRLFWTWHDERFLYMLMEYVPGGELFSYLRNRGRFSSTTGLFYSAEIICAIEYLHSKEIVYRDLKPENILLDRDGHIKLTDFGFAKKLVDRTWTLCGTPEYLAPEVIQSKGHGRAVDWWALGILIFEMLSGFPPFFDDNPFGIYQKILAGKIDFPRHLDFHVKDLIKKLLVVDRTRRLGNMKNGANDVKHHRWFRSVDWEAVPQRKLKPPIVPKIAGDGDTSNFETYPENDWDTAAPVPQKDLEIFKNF
T40 sequence (P05771 whole entry): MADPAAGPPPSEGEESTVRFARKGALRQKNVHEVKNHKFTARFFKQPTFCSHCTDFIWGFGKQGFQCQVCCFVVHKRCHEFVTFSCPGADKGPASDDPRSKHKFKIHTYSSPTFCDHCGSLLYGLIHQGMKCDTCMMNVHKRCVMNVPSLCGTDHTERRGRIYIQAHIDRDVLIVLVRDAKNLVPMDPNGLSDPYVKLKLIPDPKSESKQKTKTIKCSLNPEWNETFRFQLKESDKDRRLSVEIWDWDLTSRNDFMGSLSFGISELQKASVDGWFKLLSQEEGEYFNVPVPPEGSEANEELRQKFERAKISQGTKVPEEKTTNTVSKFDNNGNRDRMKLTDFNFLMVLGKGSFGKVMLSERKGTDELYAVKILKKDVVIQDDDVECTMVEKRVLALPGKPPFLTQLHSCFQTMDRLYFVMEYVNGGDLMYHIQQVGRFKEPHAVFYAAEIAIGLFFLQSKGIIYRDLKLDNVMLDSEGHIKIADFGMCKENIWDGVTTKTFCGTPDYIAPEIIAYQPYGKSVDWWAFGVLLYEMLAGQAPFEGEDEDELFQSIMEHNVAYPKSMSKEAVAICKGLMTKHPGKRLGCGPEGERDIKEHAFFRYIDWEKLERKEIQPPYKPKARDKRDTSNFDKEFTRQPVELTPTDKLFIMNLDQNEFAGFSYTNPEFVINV
T33 sequence (Q9HBY8 whole entry): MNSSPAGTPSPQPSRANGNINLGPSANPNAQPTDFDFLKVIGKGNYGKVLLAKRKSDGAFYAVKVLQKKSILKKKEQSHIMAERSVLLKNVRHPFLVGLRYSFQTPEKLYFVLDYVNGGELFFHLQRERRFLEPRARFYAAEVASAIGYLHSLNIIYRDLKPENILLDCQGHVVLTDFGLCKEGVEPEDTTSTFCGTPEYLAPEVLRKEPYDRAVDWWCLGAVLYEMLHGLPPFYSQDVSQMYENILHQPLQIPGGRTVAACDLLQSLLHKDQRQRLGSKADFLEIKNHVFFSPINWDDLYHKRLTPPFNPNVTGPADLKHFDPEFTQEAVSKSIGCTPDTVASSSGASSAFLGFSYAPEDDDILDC

- Avg POC (PKD2): 115.5% of control
- Avg POC (IR): 102% of control
- Avg POC (Flt1): 96.5% of control
- Avg POC (PrKX): 122% of control
- Avg POC (PKCepsilon): 103.5% of control
- Avg POC (Flt3): 99% of control
- Avg POC (DMPK): 106% of control
- Avg POC (TrkB): 9% of control
- Avg POC (BrSK2): 119.5% of control
- Avg POC (PDGFRbeta): 103.5% of control
- Avg POC (PKCtheta): 108.5% of control
- Avg POC (IRAK4): 88% of control
- Avg POC (DAPK3): 91% of control
- Avg POC (p38alpha): 108% of control
- Avg POC (LOK): 107.5% of control
- Avg POC (MELK): 89% of control
- Avg POC (IRR): 110.5% of control
- Avg POC (CAMK2g): 116% of control
- Avg POC (IGF-1R): 85.5% of control
- Avg POC (ARK5): 106% of control
- Avg POC (Ret): 125.5% of control
- Avg POC (EphB4): 99% of control
- Avg POC (JAK2): 123.5% of control
- Avg POC (IKKbeta): 96% of control
- Avg POC (CDK7/cyclinH/MAT1): 112.5% of control
- Avg POC (Met): 109% of control
- Avg POC (HIPK3): 82% of control
- Avg POC (SGK1): 125% of control
- Avg POC (PDK1): 85.5% of control
- Avg POC (BLK_m): 107% of control
- Avg POC (Plk2): 99.5% of control
- Avg POC (PAK2): 101.5% of control
- Avg POC (SGK2): 121.5% of control
- Avg POC (PKD1): 94.5% of control
- Avg POC (p70S6K): 107.5% of control
- Avg POC (PhKgamma2): 110% of control
- Avg POC (Yes): 97.5% of control
- Avg POC (MST3): 97% of control
- Avg POC (MKK4_m): 122% of control
- Avg POC (PKCbetaI): 97% of control
- Avg POC (SGK3): 82% of control
Structure (SMILES): COCCN1C[C@@H](NC(=O)Nc2sc(C(C)C)nc2-c2ccccc2)[C@H](c2ccccc2)C1 [Example 48, 1-(2-isopropyl-4-phenylthiazol-5-yl)-3-((3S,4R)-1-(2-methoxyethyl)-4-phenylpyrrolidin-3-yl)urea]
